Experimental data taken from the NIST ThermoML archive (doi:10.1016/j.jct.2013.01.015).
± gives the expanded uncertainty stated by the source.

How the values were obtained:
[1] = 298.15 K; 101.33 kPa; Liquid; Vibrating tube method
[2] = refractive index (Na D-line) (dimensionless); details: 101.33 kPa, Liquid, Standard Abbe refractometry

## CCCC(=O)O [butanoic acid]
[1]
  mass density: 952.7 ± 0.2 kg/m3
[2]; 298.2 K
  refractive index: 1.3976 ± 0.0008

## CCCCCCO [hexan-1-ol]
[1]
  mass density: 815.2 ± 0.6 kg/m3
[2]; 298.15 K
  refractive index: 1.4155 ± 0.0009

## CCCCCC [hexane]
[1]
  mass density: 654.6 ± 0.3 kg/m3
[2]; 298.15 K
  refractive index: 1.3751 ± 0.0008

## O [water]
[2]; 298.15 K
  refractive index: 1.3325 ± 0.0008
